According to patent US20240317866A1, “Use of Anti-EGFR/Anti-Met Antibody to Treat Gastric or Esophageal Cancer” (Janssen Biotech, Inc., priority 2022, published 2024):

Legend:
Type in all cases: in vivo, BALB/c nude mice
GA0075 gastric PDX = assay: Gastric PDX model GA0075, tumor growth inhibition; details: amivantamab 10 mg/kg i.p. BIW, 5-FU 10 mg/kg i.p. QD 5 days/week, cisplatin 4 mg/kg i.p. QW, paclitaxel 15 mg/kg i.v. QW, vs isotype control, Day28
Experimental: (§1) Tumor fragments from stock tumor bearing mice were harvested and inoculated into BALB/c nude mice. Each mouse was inoculated subcutaneously in the right flank with indicated tumor fragments (2-3 mm in diameter) for tumor development.
(§2) After establishment of palpable lesions, the tumor growth was measured twice weekly. Once the mean tumor volume reached approximate 150 mm^3, animals were randomly allocated to relevant study groups with 8 mice per group. The randomization was performed according to the tumor size of each group, and the day of randomization was denoted as Day0. The treatments were started on the same day of randomization according to the dosing regimen in Table 18 where appropriate.
(§3) The study endpoints were to compare the tumor growth in each group at the end of treatments, and the subsequent tumor outgrowth after dosing stopped. The tumor size was measured twice weekly in two dimensions using a caliper, and the tumor volume was expressed in mm3 using the formula V=0.5×L×W^2, where V was tumor volume, L was tumor length (longest tumor dimension) and W was tumor width (longest tumor dimension perpendicular to L).
(§4) Tumor growth inhibition (TGI %) was an indication of anti-tumor activities, and calculated as TGI %=(1−(T−T0)/(C−C0))×100%, T and C were the mean tumor volume (TV) of treated and control groups, respectively on the day when mean TV of control group were terminated per study design.

GA0152 gastric PDX = assay: Gastric PDX model GA0152, tumor growth inhibition; details: amivantamab 10 mg/kg i.p. BIW, 5-FU 10 mg/kg i.p. QD 5 days/week, cisplatin 4 mg/kg i.p. QW, paclitaxel 15 mg/kg i.v. QW, vs isotype control
Experimental: as §1, §2, §3, §4

GA3121 gastric PDX = assay: Gastric PDX model GA3121, tumor growth inhibition; details: amivantamab 10 mg/kg i.p. BIW, paclitaxel 10 mg/kg i.v. QW, vs isotype control
Experimental: as §1, §2
as §3, with “L). […]” for “L).”

GA0046 gastric PDX = assay: Gastric PDX model GA0046, tumor growth inhibition

Row | SMILES | TGI% (GA0075 gastric PDX) [%] | TGI% (GA0152 gastric PDX) [%] | TGI% (GA0152 gastric PDX; listed as paxlitaxel) [%] | TGI% (GA3121 gastric PDX) [%] | effect on tumor growth (in words) (GA0046 gastric PDX; amivantamab 10 mg/kg BIW single agent, capmatinib 10 mg/kg BID) | TGI% (GA0046 gastric PDX; amivantamab 10 mg/kg i.p. BIW, capmatinib 10 mg/kg p.o. BID, vs isotype control, Day28) [%]
1 | CC(=O)O[C@H]1C(=O)[C@@]2(C)[C@H]([C@H](OC(=O)c3ccccc3)[C@]3(O)C[C@H](OC(=O)[C@H](O)[C@@H](NC(=O)c4ccccc4)c4ccccc4)C(C)=C1C3(C)C)[C@]1(OC(C)=O)CO[C@@H]1C[C@@H]2O [paclitaxel, reference compound] | 66.09 | 27.29 | 27.29 | −12.99 | – | –
2 | CNC(=O)c1ccc(-c2cnc3ncc(Cc4ccc5ncccc5c4)n3n2)cc1F [capmatinib, reference compound] | – | – | – | – | no effect on tumor growth | 5.93
